Test results published in patent US5364844A, “Renin-inhibitory oligopeptides, their preparation and use” (Sankyo Company, Limited, priority 1988, dated 1994).

Target: T1, human renin (Homo sapiens, UniProt P00797)
T1 sequence (P00797 67-406): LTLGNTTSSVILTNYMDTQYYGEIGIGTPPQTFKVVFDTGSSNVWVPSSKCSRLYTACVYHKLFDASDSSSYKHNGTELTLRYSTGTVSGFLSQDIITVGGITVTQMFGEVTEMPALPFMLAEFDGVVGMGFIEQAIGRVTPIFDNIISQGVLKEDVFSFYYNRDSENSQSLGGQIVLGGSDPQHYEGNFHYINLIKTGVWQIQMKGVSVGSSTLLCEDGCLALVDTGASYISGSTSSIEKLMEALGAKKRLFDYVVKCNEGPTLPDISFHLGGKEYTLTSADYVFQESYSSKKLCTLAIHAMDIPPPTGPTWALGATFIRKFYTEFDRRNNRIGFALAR
Test: Inhibition of human renin activity (procedure of Kokubu et al.)
Format: biochemical
Details: sheep angiotensinogen, pH 7.3, 10 minutes at 37° C.; mean of 3 or 4 experiments
Method: The ability of various compounds of the invention to inhibit the activity of renin was determined according to the following method, which follows essentially the procedure of Kokubu et al. [Hypertension, 5, 191-197 (1983)].
Specifically, each test compound was dissolved in 60% v/v aqueous ethanol. Human renin activity in the presence and absence of each compound was measured using sheep angiotensinogen. The total volume of 1 ml of assay mixture contained 0.1 mole/liter phosphate buffer (pH 7.3), human renin (equivalent to 0.5 ng angiotensin I per ml per minute), sheep angiotensinogen (equivalent to 200 ng angiotensin I), […], 6% v/v ethanol and angiotensinase inhibitors (10 mmole/liter sodium ethylenediaminetetraacetate and 3.4 mmole/liter 8-hydroxyquinoline). The mixture was allowed to react for 10 minutes at 37° C., and then the reaction was stopped by placing the reaction tube in a boiling water bath for 5 minutes. The mixture was then centrifuged and the supernatant (0.05-0.1 ml) was used to assay remaining angiotensin I.
An identical experiment was carried out, as a control, except that the test compound was omitted. From the values obtained were calculated the % inhibition of renin activity achieved by each test compound. The results are shown in the following Table 9, in which the compounds of the invention are identified by the numbers of the Examples given hereafter in which are described their preparation. The values given are the mean of 3 or 4 experiments.

Compound | Inhibitory Activity (%) Against Human Renin
CCC(C)CNC(=O)[C@@H](C[C@H](O)[C@H](CC(C)C)NC(=O)[C@H](Cc1cscn1)NC(=O)[C@H](Cc1cccc2ccccc12)NC(=O)OC(C)(C)C)C(C)(C)O (mixture of isomers) [Example 7, (2S, 4S, 5S)-5-{N-[N-(t-Butoxycarbonyl)-3-(1-naphthyl)-L-alanyl]-3-(4-thiazolyl)-L-alanyl}amino-4-hydroxy-2-(1-hydroxy-1-methylethyl)-7-methyl-N-[2(RS)-methylbutyl]octanamide] | 98.2%
CC[C@H](C)CNC(=O)[C@@H](C[C@H](O)[C@H](CC1CCCCC1)NC(=O)[C@H](Cc1cscn1)NC(=O)[C@H](Cc1ccccc1)NC(=O)CN1CCOCC1)C(C)(C)O [Example 3, (2S, 4S, 5S)-S-{N-[N-Morpholinoacetyl-L-phenylalanyl]-3-(4-thiazolyl)-L-alanyl}amino-6-cyclohexyl-4-hydroxy-2-(1-hydroxy-1-methylethyl)-N-[2(S)-methylbutyl]hexanamide] | 96.7%
CC[C@H](C)CNC(=O)[C@@H](C[C@H](O)[C@H](CC1CCCCC1)NC(=O)[C@H](Cc1cscn1)NC(=O)[C@@H](CC(=O)N1CCOCC1)Cc1cccc2ccccc12)C(C)(C)O [Example 4, (2S, 4S, 5S)-5-{N-[2(R)-(1-Naphthylmethyl)-3-(morpholinocarbonyl)propionyl]-3-(4-thiazolyl)-L-alanyl}amino-6-cyclohexyl-4-hydroxy-2-(1-hydroxy-1-methylethyl)-N-[2(S)-methylbutyl]hexanamide] | 96.8%
CC[C@H](C)CNC(=O)[C@@H](C[C@H](O)[C@H](CC1CCCCC1)NC(=O)[C@H](Cc1cscn1)NC(=O)[C@@H](CC(=O)N1CCOCC1)Cc1ccccc1)C(C)(C)O [Example 5, (2S, 4S, 5S)-5-{N-[2(R)-Benzyl-3-(morpholinocarbonyl)propionyl]-3-(4-thiazolyl)-L-alanyl}amino-6-cyclohexyl-4-hydroxy-2-(1-hydroxy-1-methylethyl)-N-[2 (S)-methylbutyl]hexanamide] | 92.2%

Continued, values first:

Inhibitory Activity (%) Against Human Renin | Compound
97.4% | CCC(C)CNC(=O)[C@@H](C[C@H](O)[C@H](CC(C)C)NC(=O)[C@H](Cc1cscn1)NC(=O)[C@@H](CC(=O)N(C)C1CCCCC1)Cc1cccc2ccccc12)C(C)(C)O (mixture of isomers) [Example 8, (2S, 4S, 5S)-5-{N-[2(R)-(1-Naphthylmethyl)-3-(N-cyclohexyl-N-methylaminocarbonyl)propionyl]-3-(4-thiazolyl)-L-alanyl}amino-4-hydroxy-2-(1-hydroxy-1-methylethyl)-7-methyl-N-[2-(RS)-methylbutyl]octanamide]
96.3% | CC[C@H](C)CNC(=O)[C@@H](C[C@H](O)[C@H](CC1CCCCC1)NC(=O)[C@H](Cc1cscn1)NC(=O)[C@H](Cc1cccc2ccccc12)NC(=O)CN1CCOCC1)C(C)(C)O [Example 2, (2S, 4S, 5S)-5-{N-[N-Morpholinoacetyl-3-(1-naphthyl)-L-alanyl]-3-(4-thiazolyl)-L-alanyl}amino-6-cyclohexyl-4-hydroxy-2-(1-hydroxy-1-methylethyl)-N-[2(S)-methylbutyl]hexanamide]
90.9% | CNC(=O)[C@@H](C[C@H](O)[C@H](CC1CCCCC1)NC(=O)[C@H](Cc1cscn1)NC(=O)[C@@H](CC(=O)N1CCOCC1)Cc1ccccc1)C(C)(C)O [Example 9]
